Experimental data: patent publication US9676714B2, “Sulfonylindole derivatives and method for preparing the same” (Daewoong Pharmaceutical Co., Ltd., priority 2013, dated 2017)
Where a name gives a salt, the structure may show the parent alone.

Molecular target: T1, proton pump (H+/K+-ATPase) (Sus scrofa, UniProt P19156)
T1 construct: Gastric vesicles were prepared from hog stomach via centrifugal separation; from tissue; host or cells: hog stomach (gastric vesicles, method of Rabon et al. 1988)
Assay: Measurement of inhibitory effects on proton pump (H+/K+-ATPase) activities
Format: biochemical
Settings: hog gastric vesicles, K+-specific H+/K+-ATPase activity, Tris-HCl buffer pH 7.4, 37° C. for 40 minutes, malachite green Pi readout
Protocol: 1) Preparation of Gastric Vesicles
Gastric vesicles were prepared from hog stomach via centrifugal separation (Edd C. Rabon et al., Preparation of Gastric H^+,K^+-ATPase, Methods in enzymology, vol. 157 Academic Press Inc., (1988), pp. 649-654). The protein contents of the thus prepared gastric vesicles were quantitated by Bicinchoninic Acid (BCA) kit.
2) Measurement of Inhibitory Effects on Proton Pump (H^+/K^+-ATPase) Activities
The inhibitory effects of the compounds of the present invention against proton pump activities were measured using a 96-well plate. In this assay, the K^+-specific H^+/K^+-ATPase activities were calculated based on the difference between the H^+/K^+-ATPase activity in the presence of K^+ and that in the absence of K. In the 96-well plate, 0.5% dimethyl sulfoxide (DMSO) in buffer was added to the negative and positive control groups, and the diluted compounds of the present invention were added to the test groups. All assays were performed in a reaction volume of 100 μl at room temperature. The reaction buffer solution (60 mmol/l Tris-HCl buffer, pH 7.4) including the hog gastric vesicles was added with DMSO and the compounds at various concentrations, and then further added with 10 μl of 10 mmol/1 adenosine triphosphate Tris buffer solution (60 mmol/l Tris-HCl buffer, pH 7.4) to initiate an enzyme reaction. […] The amount of monophosphate (Pi) in the reaction was measured at 570 nm using a micro plate reader (FLUOstar Omega, BMG LABTECH). The inhibition rates (%) were determined from the activity values of control groups and those of test compounds at various concentrations, and the […] of the test compounds were calculated based on the respective inhibition value (%) using the Logistic 4-parameter function of Sigmaplot 8.0 program.

T1 sequence (P19156 whole entry): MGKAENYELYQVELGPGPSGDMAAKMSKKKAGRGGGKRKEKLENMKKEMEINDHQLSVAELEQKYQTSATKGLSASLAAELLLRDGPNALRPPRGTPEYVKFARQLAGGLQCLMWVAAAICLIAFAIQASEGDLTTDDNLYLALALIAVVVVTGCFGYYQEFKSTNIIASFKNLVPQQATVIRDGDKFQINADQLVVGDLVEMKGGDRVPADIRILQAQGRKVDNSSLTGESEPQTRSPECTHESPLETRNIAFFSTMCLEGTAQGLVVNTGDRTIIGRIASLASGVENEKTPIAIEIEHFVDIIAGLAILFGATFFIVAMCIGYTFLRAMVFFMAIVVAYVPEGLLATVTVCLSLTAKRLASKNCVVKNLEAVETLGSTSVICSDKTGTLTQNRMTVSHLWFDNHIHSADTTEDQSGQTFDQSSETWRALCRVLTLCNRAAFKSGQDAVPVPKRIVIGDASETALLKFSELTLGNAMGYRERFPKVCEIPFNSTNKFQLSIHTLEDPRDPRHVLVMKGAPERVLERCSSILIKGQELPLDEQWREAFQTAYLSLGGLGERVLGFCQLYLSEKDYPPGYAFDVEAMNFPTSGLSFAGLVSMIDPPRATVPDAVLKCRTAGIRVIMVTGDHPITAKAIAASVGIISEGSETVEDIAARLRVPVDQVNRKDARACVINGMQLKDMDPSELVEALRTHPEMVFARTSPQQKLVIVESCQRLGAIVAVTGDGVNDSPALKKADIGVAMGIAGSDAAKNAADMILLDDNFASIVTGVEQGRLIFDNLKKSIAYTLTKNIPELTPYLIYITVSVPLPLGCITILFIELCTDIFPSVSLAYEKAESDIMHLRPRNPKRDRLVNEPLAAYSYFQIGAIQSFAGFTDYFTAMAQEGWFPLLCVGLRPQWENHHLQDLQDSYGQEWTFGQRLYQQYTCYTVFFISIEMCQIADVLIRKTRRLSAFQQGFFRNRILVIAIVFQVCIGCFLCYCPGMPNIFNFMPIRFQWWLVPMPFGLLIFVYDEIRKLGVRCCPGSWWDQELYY
T1 sequence (P18434 whole entry partner): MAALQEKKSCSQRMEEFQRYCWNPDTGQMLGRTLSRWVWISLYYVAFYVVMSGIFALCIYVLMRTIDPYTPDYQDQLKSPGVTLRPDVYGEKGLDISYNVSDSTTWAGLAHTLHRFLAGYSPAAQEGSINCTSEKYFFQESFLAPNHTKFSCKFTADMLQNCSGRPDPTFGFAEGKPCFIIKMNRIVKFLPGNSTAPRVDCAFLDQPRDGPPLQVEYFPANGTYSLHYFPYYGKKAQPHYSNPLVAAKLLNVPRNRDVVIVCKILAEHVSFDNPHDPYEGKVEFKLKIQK

Row | SMILES | IC50
1 | CNCc1cn(S(=O)(=O)c2cccnc2)c2cc(Nc3ccc(C#N)cc3F)ccc12 [Example 38, 3-fluoro-4-((3-((methylamino)methyl)-1-(pyridin-3-ylsulfonyl)-1H-indol-6-yl)amino)benzonitrile hydrochloride] | 2190 nM
2 | CNCc1cn(S(=O)(=O)c2cccnc2)c2cc(Nc3ccc(C#N)cc3Cl)ccc12 [Example 39, 3-chloro-4-((3-((methylamino)methyl)-1-(pyridin-3-ylsulfonyl)-1H-indol-6-yl)amino)benzonitrile hydrochloride] | 130 nM
3 | CNCc1cn(S(=O)(=O)c2cccnc2)c2cc(Nc3ccc(C#N)cc3C(F)(F)F)ccc12 [Example 40, 4-((3-((methylamino)methyl)-1-(pyridin-3-ylsulfonyl)-1H-indol-6-yl)amino)-3-(trifluoromethyl)benzonitrile hydrochloride] | 1830 nM
4 | CNCc1cn(S(=O)(=O)c2cccnc2)c2cc(Nc3ccc([N+](=O)[O-])cc3Cl)ccc12 [Example 41, N-(2-chloro-4-nitrophenyl)-3-((methylamino)methyl)-1-(pyridin-3-ylsulfonyl)-1H-indol-6-amine hydrochloride] | 480 nM
5 | CCc1cc(Br)ccc1Nc1ccc2c(CNC)cn(S(=O)(=O)c3cccnc3)c2c1 [Example 43, N-(4-bromo-2-ethylphenyl)-3-((methylamino)methyl)-1-(pyridin-3-ylsulfonyl)-1H-indol-6-amine hydrochloride] | 3020 nM
6 | CNCc1cn(S(=O)(=O)c2cccnc2)c2cc(Nc3ccc(Br)cc3C(F)(F)F)ccc12 [Example 45, N-(4-bromo-2-(trifluoromethyl)phenyl)-3-((methylamino)methyl)-1-(pyridin-3-ylsulfonyl)-1H-indol-6-amine hydrochloride] | 1200 nM
7 | CNCc1cn(S(=O)(=O)c2cccnc2)c2cc(Nc3ccc(Br)cc3OC(F)(F)F)ccc12 [Example 46, N-(4-bromo-2-(trifluoromethoxy)phenyl)-3-((methylamino)methyl)-1-(pyridin-3-ylsulfonyl)-1H-indol-6-amine hydrochloride] | 2350 nM
8 | CNCc1cn(S(=O)(=O)c2cccnc2)c2cc(Nc3ccc(OC(F)(F)F)cc3F)ccc12 [Example 54, N-(2-fluoro-4-(trifluoromethoxy)phenyl)-3-((methylamino)methyl)-1-(pyridin-3-ylsulfonyl)-1H-indol-6-amine hydrochloride] | 1050 nM
9 | CNCc1cn(S(=O)(=O)c2cccnc2)c2cc(Nc3ccc(C(=O)OC)cc3Cl)ccc12 [Example 57, methyl 3-chloro-4-((3-((methylamino)methyl)-1-(pyridin-3-ylsulfonyl)-1H-indol-6-yl)amino)benzoate hydrochloride] | 430 nM
10 | CNCc1cn(S(=O)(=O)c2cccnc2)c2cc(Nc3cc(F)ccc3F)ccc12 [Example 58, N-(2,5-difluorophenyl)-3-((methylamino)methyl)-1-(pyridin-3-ylsulfonyl)-1H-indol-6-amine hydrochloride] | 410 nM
11 | CNCc1cn(S(=O)(=O)c2cccnc2)c2cc(Nc3c(F)cccc3F)ccc12 [Example 60, N-(2,6-difluorophenyl)-3-((methylamino)methyl)-1-(pyridin-3-ylsulfonyl)-1H-indol-6-amine hydrochloride] | 2460 nM
12 | CNCc1cn(S(=O)(=O)c2cccnc2)c2cc(Nc3c(C)cccc3Cl)ccc12 [Example 61, N-(2-chloro-6-methylphenyl)-3-((methylamino)methyl)-1-(pyridin-3-ylsulfonyl)-1H-indol-6-amine hydrochloride] | 290 nM
13 | CNCc1cn(S(=O)(=O)c2cccnc2)c2cc(Nc3ccc(F)c(F)c3)ccc12 [Example 62, N-(3,4-difluorophenyl)-3-((methylamino)methyl)-1-(pyridin-3-ylsulfonyl)-1H-indol-6-amine hydrochloride] | 930 nM
14 | CNCc1cn(S(=O)(=O)c2cccnc2)c2cc(Nc3cc(OC)cc(OC)c3)ccc12 [Example 63, N-(3,5-dimethoxyphenyl)-3-((methylamino)methyl)-1-(pyridin-3-ylsulfonyl)-1H-indol-6-amine hydrochloride] | 1310 nM
15 | CNCc1cn(S(=O)(=O)c2cccnc2)c2cc(Nc3cc(Cl)cc(Cl)c3)ccc12 [Example 64, N-(3,5-dichlorophenyl)-3-((methylamino)methyl)-1-(pyridin-3-ylsulfonyl)-1H-indol-6-amine hydrochloride] | 1840 nM
16 | CNCc1cn(S(=O)(=O)c2cccnc2)c2cc(Nc3ccc(F)c(F)c3F)ccc12 [Example 67, 3-((methylamino)methyl)-1-(pyridin-3-ylsulfonyl)-N-(2,3,4-trifluorophenyl)-1H-indol-6-amine hydrochloride] | 380 nM
17 | CNCc1cn(S(=O)(=O)c2cccnc2)c2cc(Nc3ccc(F)c(OC)c3F)ccc12 [Example 68, N-(2,4-difluoro-3-methoxyphenyl)-3-((methylamino)methyl)-1-(pyridin-3-ylsulfonyl)-1H-indol-6-amine hydrochloride] | 2390 nM

Next, values leading:

Row | IC50 | SMILES
18 | 340 nM | CNCc1cn(S(=O)(=O)c2cccnc2)c2cc(Nc3ccc([N+](=O)[O-])cc3C)ccc12 [Example 42, N-(2-methyl-4-nitrophenyl)-3-((methylamino)methyl)-1-(pyridin-3-ylsulfonyl)-1H-indol-6-amine hydrochloride]
19 | 270 nM | CNCc1cn(S(=O)(=O)c2cccnc2)c2cc(Nc3ccc(Br)cc3Cl)ccc12 [Example 44, N-(4-bromo-2-chlorophenyl)-3-((methylamino)methyl)-1-(pyridin-3-ylsulfonyl)-1H-indol-6-amine hydrochloride]
20 | 840 nM | CNCc1cn(S(=O)(=O)c2cccnc2)c2cc(Nc3ccc(O)cc3C)ccc12 [Example 47, 3-methyl-4-((3-((methylamino)methyl)-1-(pyridin-3-ylsulfonyl)-1H-indol-6-yl)amino)phenol hydrochloride]
21 | 260 nM | CNCc1cn(S(=O)(=O)c2cccnc2)c2cc(Nc3ccc(OC)cc3C)ccc12 [Example 48, N-(4-methoxy-2-methylphenyl)-3-((methylamino)methyl)-1-(pyridin-3-ylsulfonyl)-1H-indol-6-amine hydrochloride]
22 | 320 nM | CNCc1cn(S(=O)(=O)c2cccnc2)c2cc(Nc3ccc(OC)cc3F)ccc12 [Example 49, N-(2-fluoro-4-methoxyphenyl)-3-((methylamino)methyl)-1-(pyridin-3-ylsulfonyl)-1H-indol-6-amine hydrochloride]
23 | 1200 nM | CNCc1cn(S(=O)(=O)c2cccnc2)c2cc(Nc3ccc(OC)cc3C(F)(F)F)ccc12 [Example 51, N-(4-methoxy-2-(trifluoromethyl)phenyl)-3-((methylamino)methyl)-1-(pyridin-3-ylsulfonyl)-1H-indol-6-amine hydrochloride]
24 | 350 nM | CNCc1cn(S(=O)(=O)c2cccnc2)c2cc(Nc3cc(C)ccc3F)ccc12 [Example 59, N-(2-fluoro-5-methylphenyl)-3-((methylamino)methyl)-1-(pyridin-3-ylsulfonyl)-1H-indol-6-amine hydrochloride]
25 | 270 nM | CNCc1cn(S(=O)(=O)c2cccnc2)c2cc(Nc3ccc(F)c(C)c3C)ccc12 [Example 66, N-(4-fluoro-2,3-dimethylphenyl)-3-((methylamino)methyl)-1-(pyridin-3-ylsulfonyl)-1H-indol-6-amine hydrochloride]
